In ChEMBL document CHEMBL1136380, “Synthesis of beta-lactamase activated nitric oxide donors” (Bioorg Med Chem Lett, 2003):

Columns and labels:
[1] = The NO releasing ability measured through the formation of nitrite (NO2) in solution, following incubation of the compound
[2] = NO releasing ability of the measured through the formation of nitrite (NO2) in solution, following incubation in the absence of beta-lactamase (Compound+penicillinase)
[3] = NO releasing ability of the measured through the formation of nitrite (NO2) in solution, following incubation in the presence of beta-lactamase

Concentration [1] [µM] | Concentration [2] [µM] | Concentration [3] [µM] | SMILES
15.5 |  |  | [NH-]c1c[n+](N2CCOCC2)no1
 | 10.2 | 2.2 | O=C(Cc1cccs1)N[C@@H]1C(=O)N2C(C(=O)O)=C(COC(=O)/N=c3/c[n+](N4CCOCC4)[n-]o3)CS[C@H]12
